Reference: patent US20250163044A1, “COMPOUNDS” (PSYLO PTY LTD, priority 2021, published 2025)
“And” between values parts separate entries of the source, which are not always exact repeats. Equal values may be shown once. Read-outs that look alike come from different tables or passages of the source.

Key:
5-HT2A receptor = target: T1, 5-HT2A receptor (Homo sapiens, UniProt P28223); assay: FLIPR Ca2+ flux functional assay, agonist activity at 5-HT2A; assay type: cell-based
T1 construct: host or cells: HEK293
Description: (§1) Activity at 5-HT2A, 5-HT2B and 5-HT2C receptors was determined using a FLIPR Ca2+ flux assay at WuXi AppTec Co. Ltd. (Hong Kong) Discovery Biology Unit according to their standard protocols. Briefly, stably transfected cells expressing the receptor of interest (HEK293 for 5-HT2A and 5-HT2C; CHO-K1 for 5-HT2B) were grown and plated in a 384 well plate and incubated at 37° C. and 5% CO2 overnight. A 250 mM stock solution of probenecid in FLIPR calcium assay buffer (10 mL) was freshly prepared and combined with a fluorescent dye (Fluo-4 Direct) to give a final assay concentration of 2.5 mM. Reference compounds were 4-fold serially diluted and the screening compounds were 3-fold serially diluted in 100% DMSO for 10 points using Agilent Bravo, and 750 nL was added to a 384 well compound plate using Echo along with 30 μL assay buffer. The fluorescent dye was then added to the assay plate along with assay buffer to a final volume of 40 μL. The cell plate was incubated for 50 min at 37° C. and 5% CO2 and placed into the FLIPR Tetra along with the compound plate. 10 μL of references and compounds were then transferred from the compound plate into the cell plate and the fluorescent signal was read.

5-HT2B receptor = target: T2, 5-HT2B receptor (Homo sapiens, UniProt P41595); assay: FLIPR Ca2+ flux functional assay, agonist activity at 5-HT2B; assay type: cell-based
T2 construct: host or cells: CHO-K1
Description: as §1

5-HT2C receptor = target: T3, 5-HT2C receptor (Homo sapiens, UniProt P28335); assay: FLIPR Ca2+ flux functional assay, agonist activity at 5-HT2C; assay type: cell-based
T3 construct: host or cells: HEK293
T3 sequence (P28335 33-458): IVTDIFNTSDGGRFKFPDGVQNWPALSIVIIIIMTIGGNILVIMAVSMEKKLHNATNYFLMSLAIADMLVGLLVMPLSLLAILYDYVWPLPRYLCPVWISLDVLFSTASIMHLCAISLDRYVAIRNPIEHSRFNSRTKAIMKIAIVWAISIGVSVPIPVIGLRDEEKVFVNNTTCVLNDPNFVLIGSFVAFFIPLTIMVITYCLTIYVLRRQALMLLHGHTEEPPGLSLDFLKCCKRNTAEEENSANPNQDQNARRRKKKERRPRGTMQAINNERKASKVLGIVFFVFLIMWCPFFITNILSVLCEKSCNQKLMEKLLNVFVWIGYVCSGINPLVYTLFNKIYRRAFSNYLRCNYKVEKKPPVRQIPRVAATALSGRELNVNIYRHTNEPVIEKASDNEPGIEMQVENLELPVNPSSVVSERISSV
Description: as §1

[1] = In vivo pharmacokinetics: plasma and brain exposure after IP administration; set-up: species or system male C57BL/6 mice; conditions: for Kp at 0.083 h / Kp at 0.5 h: brain/plasma; for Cmax / Tmax / AUC(0-t): mouse, male C57BL/6 mice; for AUC(0-t): read-out: Plasma AUC0-last
Description: The systemic exposure of selected examples was studied in non-fasted male C57BL/6 mice weighing between 18.9-25.5 g. Mice had access to food and water ad libitum throughout the pre- and post-dose sampling period.
On the day of dosing, the formulation of each compound was prepared by dissolving solid compound in phosphate buffer saline (50 mM) using vortexing, creating colourless solutions (pH 6.4-6.5) for each compound.
Compounds were dosed to mice by IP injection (10 mL/kg dose volume via a 27G needle; n=9 mice per compound) and blood samples were collected at 5 and 30 min; 1, 2 and 4 h post-dose (n=3 mice per time point for each compound). A maximum of three blood samples were obtained from each mouse, with plasma samples being taken via submandibular bleed (approximately 120 μL). Once collected, blood samples were centrifuged immediately, supernatant plasma was removed, and stored at −80° C. until analysis by LCMS. In addition, at the 5 and 30 min and 4 h post-dose time points, the whole brain was rapidly removed from the carcass soon after the blood collection. The whole brains were blotted to remove excess blood, placed into pre-weighed polypropylene vials, and weighed. The brains were snap frozen in dry ice and subsequently stored frozen (−80° C.) until analysis.
Test compound standard solutions were diluted from a concentrated stock solution (32 mM in H2O) using 50% can in H2O (v/v) and a calibration curve was prepared in a matched matrix to the test samples.
Plasma: The plasma calibration curve was prepared by spiking aliquots of blank mouse plasma (25 μL) with test compound standard solutions (5 μL) and internal standard solution (5 μL of diazepam, 5 μg/mL in 50% acetonitrile in water). Test plasma samples (25 μL) were thawed, mixed, and then spiked with internal standard solution (5 μL). Plasma protein precipitation was performed by addition of acetonitrile (3-fold volume ratio) and thorough vortex mixing. Samples were centrifuged (RCF=9391×g) for 3 minutes and the supernatant (90 μL) was collected for analysis.
Tissue: Pre-weighed tissue samples (brain) were homogenised using a glass rod in buffer containing an EDTA/potassium fluoride solution (0.1 M/4 mg/mL) as a stabilisation cocktail to minimise the potential for ex vivo degradation (3 mL cocktail/g tissue). The tissue homogenate was briefly centrifuged (RCF=79×g) for 10 seconds to separate the foam layer before transferring an aliquot of the tissue homogenate (200 μL) to a fresh Eppendorf tube for sample extraction. Calibration standards were prepared by spiking blank brain homogenate (200 μL) with the solution standards (10 μL) and the internal standard (10 μL). Study samples were similarly prepared, except that acetonitrile (10 μL) was added instead of solution standards to maintain the same volume. Protein precipitation was carried out by the addition of a 3-fold volume of acetonitrile, followed by vortex mixing and centrifugation (RCF=9391×g) for 3 min to recover the supernatant for analysis.
Replicate analysis: Triplicate analytical replicate (ARs) samples were prepared similarly to the standards for each sample type at three concentrations (50, 500 and 2,000 ng/mL) and repeat injections of these ARs were included throughout the analytical run to assess assay performance. The extraction of the test compound from the standards and ARs were conducted as described above.

C57BL/6J mice = assay: Biotelemetry and head-twitch response (HTR) experiments; assay type: in vivo, Mice (C57BL/6J males); conditions: male C57BL/6 mice, SC, several doses (0.03 to 30 mg/kg)
Source text: Mice (C57BL/6J males) were purchased from the Jackson Laboratory (Bar Harbor, ME, USA) at 5-6 weeks of age and allowed at least 1-2 weeks to acclimate to the NIDA, Intramural Research Program (IRP), animal research facility in Baltimore, MD, USA. The animal facility is fully accredited by the Association for the Assessment and Accreditation of Laboratory Animal Care, and all procedures were approved by the NIDA IRP Animal Care and Use Committee. Mice were initially group housed 3-5 per cage during acclimation and housed in a 12 h light-dark cycle throughout the study, with lights on at 0700 h. Food and water were available ad libitum except during testing. Cohorts of 20-24 mice were used for each test drug. The mice were subjected to experimental testing once every 1-2 weeks for 2-3 months to complete dose-effect curves and antagonist experiments. A minimum of 7 days between treatments was utilized to avoid any tolerance to effects of repeated drug administration. All drug doses represent the weight of the salt dissolved in 0.9% saline vehicle. Mice were tested first in dose-response studies to assess the effects of each compound at doses from 0.03 to 30 mg/kg s.c. and were subsequently tested in antagonist reversal studies utilizing pretreatment with M100907 and WAY100635. All experiments were conducted from 0900 to 1700 local time during the light phase, as sensitivity of rodents to other tryptamine psychedelics is diurnal, with maximal HTR observed in the middle of the light phase. Experiments were run during the light phase also to avoid any potential influence of melatonin receptor activity on HTR as melatonin and related agonists are known to reduce HTR induced by DOI in rats. For each experiment, mice were acclimated to the testing room in their home cage for at least 1 h prior to experimental sessions. Behavioral test sessions were carried out in Tru Scan mouse locomotor arenas equipped with photobeam arrays (Coulbourn Instruments, Holliston, MA, USA), which were modified with cylindrical inserts and transparent floors useful in detecting mouse HTR.
Subcutaneous Temperature Transponder Implants. At least 1 week prior to the start of the experiments, mice received s.c. implanted temperature transponders (14×2 mm, model IPTT-300, Bio Medic Data Systems, Inc., Seaford, DE, USA) under brief isoflurane anesthesia. Mice were single housed post implant for the remainder of the study to protect the transponder from removal by cage mates. Temperature was determined noninvasively using a handheld receiver that is sensitive to signals emitted from the implanted transponders.
Prior to each experiment, mouse body weight and temperature were recorded. Mice were then placed into testing chambers for acclimation. In dose-response studies, after a brief 5 min acclimation, mouse body temperature was recorded for baseline measurement, mice received s.c. injection of test substance or vehicle, and animals were returned to the testing arena for 30 min. During the session, locomotor activity was monitored via photobeam tracking of movements in the horizontal plane to yield distance traveled in centimeter. HTR was monitored by the analysis of GoPro Hero Black 7 video recordings (120 frames per sec and 960p resolution) using a commercially available software package from Clever Sys Inc. (Reston, VA, USA). 82 Post-treatment body temperature values were also recorded, and temperature data are represented as change from pretreatment baseline.
In antagonist reversal experiments, mice received a s.c. injection of either receptor antagonists or vehicle and were returned to the testing chamber for 30 min. During this period, locomotor activity was monitored to examine the potential effects of antagonist treatment on general behavior or movement. At 30 min after antagonist administration, mice were given test drug or vehicle and returned to the chambers for an additional 30 min of video recording used for analyses. […]

[2] = 0.083 h, IP 10 mg/kg, individual mouse, 10 mg/kg
[3] = 0.083 h, IP 10 mg/kg, individual mouse, 10 mg/kg, read-out: Brain Parenchyma Concentration, Individual
[4] = 0.5 h, IP 10 mg/kg, individual mouse, 10 mg/kg
[5] = 0.5 h, IP 10 mg/kg, individual mouse, 10 mg/kg, read-out: Brain Parenchyma Concentration, Individual
[6] = 4 h, IP 10 mg/kg, individual mouse
[7] = male, C57BL/6, mouse, brain, ip, 10 mg/kg, 0.083 h, n = 3, read-out: Brain Parenchyma Concentration, Mean ± SD
[8] = male, C57BL/6, mouse, brain, ip, 10 mg/kg, 0.5 h, n = 3, read-out: Brain Parenchyma Concentration, Mean ± SD
[9] = male, C57BL/6, mouse, ip, 10 mg/kg, 0.083 h, individual mouse, read-out: B:P Ratio, Individual
[10] = male, C57BL/6, mouse, ip, 10 mg/kg, 0.5 h, n = 3, read-out: B:P Ratio, Mean ± SD
[11] = male, C57BL/6, mouse, plasma, ip, 10 mg/kg, 0.083 h, n = 3, read-out: Plasma Concentration, Mean ± SD
[12] = male, C57BL/6, mouse, plasma, ip, 10 mg/kg, 0.5 h, n = 3, read-out: Plasma Concentration, Mean ± SD
[13] = HEK293 cells, Ca2+ flux, read-out: 5-HT2A EC50
[14] = CHO-K1 cells, Ca2+ flux, read-out: 5-HT2B EC50
[15] = HEK293 cells, Ca2+ flux, read-out: 5-HT2C EC50

T2 sequence (P41595 whole entry): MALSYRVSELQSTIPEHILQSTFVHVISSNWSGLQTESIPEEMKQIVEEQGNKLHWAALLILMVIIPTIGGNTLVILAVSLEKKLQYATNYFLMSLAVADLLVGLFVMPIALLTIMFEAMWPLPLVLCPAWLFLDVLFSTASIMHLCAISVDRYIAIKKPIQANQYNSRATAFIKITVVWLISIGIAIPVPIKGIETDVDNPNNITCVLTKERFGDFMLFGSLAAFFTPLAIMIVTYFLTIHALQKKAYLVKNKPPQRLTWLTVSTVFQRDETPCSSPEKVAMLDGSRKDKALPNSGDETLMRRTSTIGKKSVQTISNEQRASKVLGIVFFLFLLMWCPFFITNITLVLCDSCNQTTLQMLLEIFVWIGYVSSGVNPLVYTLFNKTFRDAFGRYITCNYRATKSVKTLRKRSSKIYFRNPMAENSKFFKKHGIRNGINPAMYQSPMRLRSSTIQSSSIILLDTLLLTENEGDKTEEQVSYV
T1 sequence (P28223 whole entry): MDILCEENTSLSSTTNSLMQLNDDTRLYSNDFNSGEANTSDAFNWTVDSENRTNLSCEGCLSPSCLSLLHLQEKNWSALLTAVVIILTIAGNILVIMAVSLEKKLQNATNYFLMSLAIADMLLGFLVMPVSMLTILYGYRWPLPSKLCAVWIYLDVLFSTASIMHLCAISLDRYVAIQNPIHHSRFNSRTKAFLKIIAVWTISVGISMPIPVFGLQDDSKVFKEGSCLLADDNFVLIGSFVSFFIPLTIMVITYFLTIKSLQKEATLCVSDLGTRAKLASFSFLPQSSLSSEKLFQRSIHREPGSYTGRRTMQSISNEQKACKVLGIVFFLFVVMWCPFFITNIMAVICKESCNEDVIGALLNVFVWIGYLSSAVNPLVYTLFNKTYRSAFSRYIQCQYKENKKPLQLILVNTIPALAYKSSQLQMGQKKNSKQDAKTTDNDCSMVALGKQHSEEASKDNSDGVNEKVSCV

| SMILES | Emax (5-HT2A receptor; HEK293 cells, Ca2+ flux) | Emax (5-HT2B receptor; CHO-K1 cells, Ca2+ flux) | Emax (5-HT2C receptor; HEK293 cells, Ca2+ flux) | B:P Ratio, Individual [1, 2] | Plasma Concentration, Individual [1, 2] | concentration at 0.5 h [1, 3] | B:P Ratio, Individual [1, 4] | Plasma Concentration, Individual [1, 4] | concentration at 0.5 h [1, 5] | Brain Parenchyma Concentration, Individual [1, 6] | Plasma Concentration, Individual [1, 6] | concentration at 0.083 h [1, 7] | concentration at 0.5 h [1, 8] | Kp at 0.083 h [1, 9] | Kp at 0.5 h [1, 10] | concentration at 0.083 h [1, 11] | concentration at 0.5 h [1, 12] | Cmax ([1]; plasma, IP 10 mg/kg) | Tmax ([1]; plasma, IP 10 mg/kg) | AUC(0-t) ([1]; plasma, IP 10 mg/kg) | other results |
| --- | --- | --- | --- | --- | --- | --- | --- | --- | --- | --- | --- | --- | --- | --- | --- | --- | --- | --- | --- | --- | --- |
| COc1ccc2[nH]cc(CCN(C)C)c2n1 [Example P-1, 2-(5-methoxy-1H-pyrrolo[3,2-b]pyridin-3-yl)-N,N-dimethylethan-1-amine] | 47.7% | -1.07% | 74.3% | 0.24 and 0.34 | 4300 nM and 7630 nM | 2060 nM and 1040 nM and 2560 nM | 0.30 and 2.3 and 1.0 | 1030 nM and 307 nM and 420 nM | 307 nM and 701 nM and 437 nM | <LLQ | <LLQ | 1890 ± 776 nM | 482 ± 201 nM | 0.27 | 1.2 ± 1 | 6530 ± 1930 nM | 585 ± 387 nM | 6530 nM | 5 min | 1.37 µM·h | EC50 (5-HT2A receptor): 34.9 nM; EC50 (5-HT2B receptor): > 10000 nM; EC50 (5-HT2C receptor): 18.8 nM; B:P Ratio, Mean ± SD ([1]; 0.083 h, IP 10 mg/kg, n = 3): 0.28 ± 0.048; concentration at 0.083 h ([1]; male, C57BL/6, mouse, plasma, ip, 10 mg/kg, 0.083 h, individual mouse, read-out: Plasma Concentration, Individual): 7660 nM; Head-twitch response (HTR) (C57BL/6J mice): not promoting increased head-twitch response; Tolerability (temperature, locomotor activity) (C57BL/6J mice): well-tolerated |
| COc1ccnc2[nH]cc(CCN(C)C)c12 [Example P-4, 2-(4-methoxy-1H-pyrrolo[2,3-b]pyridin-3-yl)-N,N-dimethylethan-1-amine] | 35% | -0.27% | 17.9% | – | – | – | – | – | – | – | – | – | – | – | – | – | – | – | – | – | EC50 (5-HT2A receptor; [13]): 1230 nM; EC50 (5-HT2B receptor; [14]): > 10000 nM; EC50 (5-HT2C receptor; [15]): 241 nM; Head-twitch response (HTR) (C57BL/6J mice): not promoting increased head-twitch response; Tolerability (temperature, locomotor activity) (C57BL/6J mice): well-tolerated |
| COc1nccc2[nH]cc(CCN(C)C)c12 [Example P-5, 2-(4-methoxy-1H-pyrrolo[3,2-c]pyridin-3-yl)-N,N-dimethylethan-1-amine] | 56.2% | -0.87% | 79.1% | 0.19 and 0.16 | 5880 nM and 1970 nM and 8280 nM | 230 nM and 365 nM and 1360 nM | 2.5 and 2.4 | 985 nM and 776 nM | 2420 nM and 1860 nM | <LLQ | <LLQ | 984 ± 540 nM | 1970 ± 414 nM | 0.21 | 2.3 ± 0.26 | 5380 ± 3180 nM | 859 ± 111 nM | 5380 nM | 5 min | 1.63 µM·h | EC50 (5-HT2A receptor; [13]): 24.4 nM; EC50 (5-HT2B receptor; [14]): > 10000 nM; EC50 (5-HT2C receptor; [15]): 38.4 nM; concentration at 0.5 h ([1]; male, C57BL/6, mouse, brain, ip, 10 mg/kg, 0.5 h, individual mouse, read-out: Brain Parenchyma Concentration, Individual): 1610 nM; Kp at 0.083 h ([1]; male, C57BL/6, mouse, ip, 10 mg/kg, 0.083 h, n = 3, read-out: B:P Ratio, Mean ± SD): 0.19 ± 0.022; Kp at 0.5 h ([1]; male, C57BL/6, mouse, ip, 10 mg/kg, 0.5 h, individual mouse, read-out: B:P Ratio, Individual): 2; concentration at 0.5 h ([1]; male, C57BL/6, mouse, plasma, ip, 10 mg/kg, 0.5 h, individual mouse, read-out: Plasma Concentration, Individual): 815 nM |
